Laboratory results taken from publication PMC10629825, “Genetic validation of PfFKBP35 as an antimalarial drug target” (eLife, 2023).

Tests used:
Type in all cases: biochemical
[1] = molecular target: T1, N6-methyl transferase MT-A70 (Plasmodium falciparum, UniProt Q8I6Z2); assay: isothermal dose-response MS-CETSA on parasite protein lysate (putative target)
T1 construct: gene PF3D7_0729500; endogenous protein in parasite lysate

PfFKBP35 = molecular target: T2, PfFKBP35 (Plasmodium falciparum, UniProt Q8I4V8); assay: isothermal dose-response MS-CETSA on parasite protein lysate ([…]°C); live-cell CETSA EC50 […]
T2 construct: gene FKBP35; endogenous protein in parasite lysate
T2 sequence (Q8I4V8 whole entry): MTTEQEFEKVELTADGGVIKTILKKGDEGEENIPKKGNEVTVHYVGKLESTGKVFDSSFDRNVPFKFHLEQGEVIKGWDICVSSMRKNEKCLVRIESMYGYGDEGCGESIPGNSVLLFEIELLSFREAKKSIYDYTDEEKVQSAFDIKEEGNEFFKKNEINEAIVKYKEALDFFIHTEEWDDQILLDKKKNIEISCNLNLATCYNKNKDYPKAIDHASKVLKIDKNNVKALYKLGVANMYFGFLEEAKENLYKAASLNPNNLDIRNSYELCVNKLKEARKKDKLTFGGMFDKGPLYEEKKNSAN

[2] = molecular target: T3, pre-mRNA-splicing factor CEF1 (Plasmodium falciparum, UniProt Q7KQL1); assay: isothermal dose-response MS-CETSA on parasite protein lysate (putative target)
T3 construct: gene PF3D7_1033600; endogenous protein in parasite lysate
T3 sequence (Q7KQL1 entry or part of it): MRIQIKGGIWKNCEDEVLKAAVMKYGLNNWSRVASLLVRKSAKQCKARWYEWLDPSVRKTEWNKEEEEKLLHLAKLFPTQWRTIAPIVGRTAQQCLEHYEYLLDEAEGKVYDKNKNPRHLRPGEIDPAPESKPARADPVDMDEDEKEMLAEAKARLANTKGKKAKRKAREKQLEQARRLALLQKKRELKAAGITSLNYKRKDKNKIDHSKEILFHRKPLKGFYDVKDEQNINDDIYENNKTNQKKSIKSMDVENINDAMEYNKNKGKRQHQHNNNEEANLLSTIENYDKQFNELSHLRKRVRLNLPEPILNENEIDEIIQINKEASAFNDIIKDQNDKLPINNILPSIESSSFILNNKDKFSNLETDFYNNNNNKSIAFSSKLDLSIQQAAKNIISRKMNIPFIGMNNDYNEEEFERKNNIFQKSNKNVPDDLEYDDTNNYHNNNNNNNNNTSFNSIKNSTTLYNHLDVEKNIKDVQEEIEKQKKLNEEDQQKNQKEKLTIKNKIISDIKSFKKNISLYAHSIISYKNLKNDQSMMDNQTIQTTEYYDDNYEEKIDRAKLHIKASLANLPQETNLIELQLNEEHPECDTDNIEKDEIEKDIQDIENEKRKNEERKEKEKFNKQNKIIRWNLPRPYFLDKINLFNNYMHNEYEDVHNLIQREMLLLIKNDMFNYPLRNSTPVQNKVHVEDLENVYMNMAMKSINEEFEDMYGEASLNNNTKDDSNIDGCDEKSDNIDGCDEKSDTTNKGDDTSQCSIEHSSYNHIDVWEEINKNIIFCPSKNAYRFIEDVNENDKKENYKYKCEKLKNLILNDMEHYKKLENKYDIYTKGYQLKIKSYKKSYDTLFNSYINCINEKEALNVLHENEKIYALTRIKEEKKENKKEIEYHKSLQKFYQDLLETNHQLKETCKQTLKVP

T1 sequence (Q8I6Z2 entry or part of it): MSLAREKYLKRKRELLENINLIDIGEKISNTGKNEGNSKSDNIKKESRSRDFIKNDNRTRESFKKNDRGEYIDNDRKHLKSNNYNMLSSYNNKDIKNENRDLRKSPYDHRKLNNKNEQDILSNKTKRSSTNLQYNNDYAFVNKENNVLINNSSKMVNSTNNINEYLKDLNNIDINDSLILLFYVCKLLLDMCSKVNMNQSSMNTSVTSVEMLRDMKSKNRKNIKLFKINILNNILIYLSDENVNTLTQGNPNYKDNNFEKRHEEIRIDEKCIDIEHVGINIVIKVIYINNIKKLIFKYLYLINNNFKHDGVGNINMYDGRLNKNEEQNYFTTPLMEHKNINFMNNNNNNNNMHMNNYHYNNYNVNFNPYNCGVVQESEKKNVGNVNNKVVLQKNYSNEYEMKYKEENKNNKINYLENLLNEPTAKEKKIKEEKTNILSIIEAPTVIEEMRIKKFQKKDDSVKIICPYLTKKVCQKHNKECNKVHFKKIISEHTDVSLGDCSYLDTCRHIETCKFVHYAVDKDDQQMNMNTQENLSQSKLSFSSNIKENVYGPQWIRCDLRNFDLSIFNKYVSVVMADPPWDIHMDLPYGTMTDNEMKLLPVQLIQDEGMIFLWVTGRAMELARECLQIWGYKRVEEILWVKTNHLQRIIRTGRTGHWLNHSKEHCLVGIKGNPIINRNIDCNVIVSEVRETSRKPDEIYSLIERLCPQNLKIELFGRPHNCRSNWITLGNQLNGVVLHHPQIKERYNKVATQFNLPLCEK

`C=CC[C@@H]1/C=C(\C)C[C@H](C)C[C@H](OC)[C@H]2O[C@@](O)(C(=O)C(=O)N3CCCC[C@H]3C(=O)O[C@H](/C(C)=C/[C@@H]3CC[C@@H](O)[C@H](OC)C3)[C@H](C)[C@@H](O)CC1=O)[C@H](C)C[C@@H]2OC` [FK506] showed an EC50 [1] of 2000 nM, an EC50 (PfFKBP35) of 152 nM and an EC50 [2] of 3100 nM.
